The nature of series [1]: pH-solubility profile: maximum solubility in aqueous media at varying pH. In kind it is physicochemical. As to conditions: aqueous buffer. An excerpt: Such increased aqueous solubility, coupled with the enhanced potency resulting from decreased protein binding, might make such compounds preferred for development as parenteral agents.
Series [2] concerns male subjects with hormone refractory prostate cancer. As to the kind of experiment: Prostate specific antigen (PSA) level assay in serum of treated subjects. In kind it is in vivo, human. The conditions noted are these: subjects treated with placebo or 2.5 mg or 10 mg. On the procedure: (§1) Studies were performed on male subjects with asymptomatic hormone refractory prostate cancer with rising PSA levels and on male subjects with symptomatic hormone refractory prostate cancer with rising PSA levels and pain. Subjects in the phase II studies had castrate levels of testosterone, either due to pharmacologic intervention, via leuprolide (Lupron®) or goserelin (Zoladex®), or via surgical castration. Subjects received ABT-627 or placebo. The following tests were conducted:
(§2) ABT-627 was formulated in 2.5 and 10 mg doses. An oral liquid formulation of ABT-627 was also prepared as follows: 1 mg/ml ABT-627, 50% glycerin, 14% alcohol, and water. Matching placebos were also provided.
A number of recognized or putative biochemical markers of disease progression have been used to monitor treatment of individuals with prostate cancer. […]
The effect of ABT-627 administeration on prostate specific antigen (PSA) levels in human subject serum samples was determined using the procedure described in the Chiron Diagnostics ACS: Centaur PSA2 Assay. […]
Briefly, a subject population was treated with a placebo or 2.5 mg or 10 mg of ABT-627. […] A direct relationship exists between the amount of PSA present in the patient sample and the RLU's (relative light units) detected.

For series [3] the test system is unchanged. As to the kind of experiment: Bone alkaline phosphatase (BAP) levels of treated subjects. The conditions noted are these: subjects treated versus placebo. Format: in vivo, human. On the procedure:
as §1, §2
(§3) Markers of osteoblastic activity were assessed using […]. Bone markers include bone alkaline phosphatase (BAP), deoxypridinoline, and N-telopeptide of Type I collagen. Blood samples were collected prior to dosing on Day 1, Day 42, Day 84, Day 168, and every 28 days after Day 168, with a final collection on the last day of the study.
Bone Alkaline Phosphatase levels were determined using the bone-specific Alkphase-B® assay published by Metra Biosystems (Mountain View, Calif.).

The test system is the same in series [4]. As to the kind of experiment: Crosslinked N-telopeptide levels of treated subjects. In kind it is in vivo, human. The conditions noted are these: subjects treated versus placebo. On the procedure:
as §1, §2, §3
Cross-linked N-telopeptide levels were determined using the DiaSorin (Stillwater, MN) assay for the quantitative determination of carboxyterminal cross-linked telopeptide of type I collagen (ICTP) in human serum by equilibrium radioimmunoassay (RIA). […] The bound tracer in the pellet was counted with a gamma counter. […]

For series [5] the test system is unchanged. As to the kind of experiment: Acid phosphatase levels in serum of treated subjects. In kind it is in vivo, human. As to conditions: subjects treated with placebo or 2.5 mg or 10 mg. On the procedure:
as §1, §2
The enzyme Acid Phosphatase (ACP) catalyzes the hydrolysis of alpha-naphthyl phosphate to alpha-naphthol and inorganic phosphate. The alpha-naphthol immediately reacts with fast red TR salt to produce a yellow chromophore with an absorbance maximum at 405 nm. The rate of increase in absorbance at 405 nm is directly proportional to ACP activity in the sample. ACP activity was determined in the presence and absence of L-tartrate, the difference being attributed to prostatic acid phosphatase activity.
Briefly, a subject population was treated with a placebo or 2.5 mg or 10 mg of ABT-627. […] The mixture was incubated for another 5 minutes, and a second absorbance was read to provide a final absorbance. […]

In brackets after ≈: the same amount, converted by molar mass.

Broadly, the solubility is how much of the substance goes into solution per volume.

On to `CCCCN(C(=O)CN1CC(c2ccc3c(c2)OCO3)C(C(=O)O)C1c1ccc(OC)cc1)c1cccnc1` (centres unmarked) [compound 531], for which the solubility in series [1] (pH 5.1, about 25° C.) was over 3300 µg/mL; in series [1] (pH 6.5, about 25° C.), over 3400 µg/mL; in series [1] (pH 7.1, about 25° C.), 3540 µg/mL (≈ 6.66 mM); in series [1] (pH 7.6, about 25° C.), 3550 µg/mL (≈ 6.68 mM).

As to `CCCCCN(CCCC)C(=O)CN1C[C@H](c2ccc3c(c2)OCO3)[C@@H](C(=O)O)[C@@H]1c1ccc(OC)cc1` [ABT-627], the “rate of increase of PSA in serum (AUC, FIG. 2)” value in series [2] is reported as “rate of increase of PSA in the serum samples decreases”. Moreover, in series [3], the “BAP levels (AUC, FIG. 5)” value is “BAP levels decreased”. Besides, in series [4], the “Crosslinked N-telopeptide levels (AUC, FIG. 4)” value is given as “Crosslinked N-telopeptide levels decreased”. In series [5], the “rate of increase and average change from baseline for acid phosphatase (AUC, FIG. 7)” value is “the rate of increase and the average change from baseline for acid phosphatase was decreased”.

The record behind these values is patent US7208517B1, “Endothelin antagonists” (Abbott Labortories, priority 1994, dated 2007).
